target: GST-Bcl-2 (Homo sapiens, UniProt P10415); experiment: Time Resolved-Fluorescence Resonance Energy Transfer (TR-FRET) Bcl-2 binding assay; conditions: competition with F-Bak peptide probe (100 nM); GST-Bcl-2 1 nM; Tb-anti-GST 1 nM; 3 hours at room temperature; Wang's equation
Protocol: Determination of the utility of compounds having Formula (I) as binders to and inhibitors of anti-apoptotic Bcl-2 proteins was performed using the Time Resolved-Fluorescence Resonance Energy Transfer (TR-FRET) Assay. Tb-anti-GST antibody was purchased from Invitrogen (Catalog No. PV4216).
(§1) Representative compounds were serially diluted in dimethyl sulfoxide (DMSO) starting at 50 μM (2× starting concentration; 10% DMSO) and 10 μL were transferred into a 384-well plate. The samples are then mixed on a shaker for 1 minute and incubated for an additional 3 hours at room temperature. For each assay, the probe/antibody and protein/probe/antibody were included on each assay plate as negative and positive controls, respectively. Fluorescence was measured on the Envision (Perkin Elmer) using a 340/35 nm excitation filter and 520/525 (F-Bak peptide) and 495/510 nm (Tb-labeled anti-Histidine antibody) emission filters.
as §1, with “The” for “Representative compounds were serially diluted in dimethyl sulfoxide (DMSO) starting at 50 μM (2× starting concentration; 10% DMSO) and 10 μL were transferred into a 384-well plate. The”, “were” for “are”
The inhibition constant (Ki) is the dissociation constant of an enzyme-inhibitor complex or a protein/small molecule complex, wherein the small molecule is inhibiting binding of one protein to another protein. So a large Ki value indicates a low binding affinity and a small Ki value indicates a high binding affinity.

Sequence of GST-Bcl-2 (P10415 whole entry): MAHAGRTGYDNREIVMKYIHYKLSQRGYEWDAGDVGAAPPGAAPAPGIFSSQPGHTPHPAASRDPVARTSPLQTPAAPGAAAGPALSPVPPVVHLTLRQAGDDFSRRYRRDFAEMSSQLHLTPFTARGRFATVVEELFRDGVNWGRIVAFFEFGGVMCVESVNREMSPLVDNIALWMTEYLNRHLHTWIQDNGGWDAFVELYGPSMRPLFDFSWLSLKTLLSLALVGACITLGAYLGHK

Going from `Cn1c(=O)[nH]c2cccc(Oc3cc(N4CCN(CC5=C(c6ccc(Cl)cc6)CC(C)(C)CC5)CC4)ccc3C(=O)NS(=O)(=O)c3ccc(OCC4CCOCC4)c(Cl)c3)c21` [Example 438, 4-(4-{[2-(4-chlorophenyl)-4,4-dimethylcyclohex-1-en-1-yl]methyl}piperazin-1-yl)-N-{[3-chloro-4-(tetrahydro-2H-pyran-4-ylmethoxy)phenyl]sulfonyl}-2-[(3-methyl-2-oxo-2,3-dihydro-1H-benzimidazol-4-yl)oxy]benzamide] to `Cn1c(=O)[nH]c2cccc(Oc3cc(N4CCN(CC5=C(c6ccc(Cl)cc6)CC(C)(C)CC5)CC4)ccc3C(=O)NS(=O)(=O)c3cnc(OCC4CCOCC4)c(Cl)c3)c21` [Example 425, 4-(4-{[2-(4-chlorophenyl)-4,4-dimethylcyclohex-1-en-1-yl]methyl}piperazin-1-yl)-N-{[5-chloro-6-(tetrahydro-2H-pyran-4-ylmethoxy)pyridin-3-yl]sulfonyl}-2-[(3-methyl-2-oxo-2,3-dihydro-1H-benzimidazol-4-yl)oxy]benzamide], the Ki falls from 0.031 nM to 0.013 nM (2.4-fold).

First: CC1(C)CCC(CN2CCN(c3ccc(C(=O)NS(=O)(=O)c4cnc(OCC5(F)CCC(C)(O)CC5)c(Cl)c4)c(Oc4cnc(N)c(Cl)c4)c3)CC2)=C(c2ccc(Cl)cc2)C1 (stereo not drawn) [Example 444, 2-[(6-amino-5-chloropyridin-3-yl)oxy]-N-({5-chloro-6-[(cis-1-fluoro-4-hydroxy-4-methylcyclohexyl)methoxy]pyridin-3-yl}sulfonyl)-4-(4-{[2-(4-chlorophenyl)-4,4-dimethylcyclohex-1-en-1-yl]methyl}piperazin-1-yl)benzamide]
Second: CC1(C)CCC(CN2CCN(c3ccc(C(=O)NS(=O)(=O)c4ccc(OC[C@H]5CC[C@](C)(O)CC5)c([N+](=O)[O-])c4)c(Oc4cnc(N)c(Cl)c4)c3)CC2)=C(c2ccc(Cl)cc2)C1 [Example 441, 2-[(6-amino-5-chloropyridin-3-yl)oxy]-4-(4-{[2-(4-chlorophenyl)-4,4-dimethylcyclohex-1-en-1-yl]methyl}piperazin-1-yl)-N-({4-[(trans-4-hydroxy-4-methylcyclohexyl)methoxy]-3-nitrophenyl}sulfonyl)benzamide]
The Ki of the first is 3-fold lower: 0.018 nM for the first, 0.054 nM for the second.

`Cn1c(=O)[nH]c2cccc(Oc3cc(N4CCN(CC5=C(c6ccc(Cl)cc6)CC(C)(C)CC5)CC4)ccc3C(=O)NS(=O)(=O)c3ccc(OCC4(F)CCOCC4)c([N+](=O)[O-])c3)c21` [Example 426, 4-(4-{[2-(4-chlorophenyl)-4,4-dimethylcyclohex-1-en-1-yl]methyl}piperazin-1-yl)-N-({4-[(4-fluorotetrahydro-2H-pyran-4-yl)methoxy]-3-nitrophenyl}sulfonyl)-2-[(3-methyl-2-oxo-2,3-dihydro-1H-benzimidazol-4-yl)oxy]benzamide] and `CC1(C)CCC(CN2CCN(c3ccc(C(=O)NS(=O)(=O)c4ccc(OCC5(F)CCOCC5)c([N+](=O)[O-])c4)c(Oc4cccc5[nH]nc(N)c45)c3)CC2)=C(c2ccc(Cl)cc2)C1` [Example 429, 2-[(3-amino-1H-indazol-4-yl)oxy]-4-(4-{[2-(4-chlorophenyl)-4,4-dimethylcyclohex-1-en-1-yl]methyl}piperazin-1-yl)-N-({4-[(4-fluorotetrahydro-2H-pyran-4-yl)methoxy]-3-nitrophenyl}sulfonyl)benzamide] cannot be ordered by Ki: less than 0.01 nM for the first, less than 0.01 nM for the second.

`CC1(C)CCC(CN2CCN(c3ccc(C(=O)NS(=O)(=O)c4ccc(OCC5(F)CCOCC5)c([N+](=O)[O-])c4)c(Oc4cc(F)cc5[nH]ncc45)c3)CC2)=C(c2ccc(Cl)cc2)C1` [Example 433, 4-(4-{[2-(4-chlorophenyl)-4,4-dimethylcyclohex-1-en-1-yl]methyl}piperazin-1-yl)-2-[(6-fluoro-1H-indazol-4-yl)oxy]-N-({4-[(4-fluorotetrahydro-2H-pyran-4-yl)methoxy]-3-nitrophenyl}sulfonyl)benzamide] and `CC1(C)CC(c2ccc(Cl)cc2)=C(CN2CCN(c3ccc(C(=O)NS(=O)(=O)c4ccc(OCC5(F)CCOCC5)c([N+](=O)[O-])c4)c(Oc4cc5cc[nH]c5cc4F)c3)CC2)CO1` [Example 297, 4-(4-{[4-(4-chlorophenyl)-6,6-dimethyl-5,6-dihydro-2H-pyran-3-yl]methyl}piperazin-1-yl)-2-[(6-fluoro-1H-indol-5-yl)oxy]-N-({4-[(4-fluorotetrahydro-2H-pyran-4-yl)methoxy]-3-nitrophenyl}sulfonyl)benzamide] cannot be ordered by Ki: less than 0.01 nM for the first, less than 0.01 nM for the second.

`CC1(C)CCC(CN2CCN(c3ccc(C(=O)NS(=O)(=O)c4cnc(OCC5(F)CCOCC5)c(Cl)c4)c(Oc4ccc(F)c5[nH]ncc45)c3)CC2)=C(c2ccc(Cl)cc2)C1` [Example 420, N-({5-chloro-6-[(4-fluorotetrahydro-2H-pyran-4-yl)methoxy]pyridin-3-yl}sulfonyl)-4-(4-{[2-(4-chlorophenyl)-4,4-dimethylcyclohex-1-en-1-yl]methyl}piperazin-1-yl)-2-[(7-fluoro-1H-indazol-4-yl)oxy]benzamide] and `CC1(C)CCC(CN2CCN(c3ccc(C(=O)NS(=O)(=O)c4cnc(OCC5(F)CCOCC5)c(Cl)c4)c(Oc4cccc5[nH]nc(N)c45)c3)CC2)=C(c2ccc(Cl)cc2)C1` [Example 430, 2-[(3-amino-1H-indazol-4-yl)oxy]-N-({5-chloro-6-[(4-fluorotetrahydro-2H-pyran-4-yl)methoxy]pyridin-3-yl}sulfonyl)-4-(4-{[2-(4-chlorophenyl)-4,4-dimethylcyclohex-1-en-1-yl]methyl}piperazin-1-yl)benzamide] cannot be ordered by Ki: less than 0.01 nM for the first, less than 0.01 nM for the second.

`CC1(C)CCC(CN2CCN(c3ccc(C(=O)NS(=O)(=O)c4cnc(OCC5CCC(C)(O)CC5)c(Cl)c4)c(Oc4cccc5[nH]nc(N)c45)c3)CC2)=C(c2ccc(Cl)cc2)C1` (stereo not drawn) [Example 445, 2-[(3-amino-1H-indazol-4-yl)oxy]-N-({5-chloro-6-[(trans-4-hydroxy-4-methylcyclohexyl)methoxy]pyridin-3-yl}sulfonyl)-4-(4-{[2-(4-chlorophenyl)-4,4-dimethylcyclohex-1-en-1-yl]methyl}piperazin-1-yl)benzamide] and `CC1(C)CCC(CN2CCN(c3ccc(C(=O)NS(=O)(=O)c4ccc(NCC5(F)CCOCC5)c([N+](=O)[O-])c4)c(Oc4cccc5[nH]nc(N)c45)c3)CC2)=C(c2ccc(Cl)cc2)C1` [Example 428, 2-[(3-amino-1H-indazol-4-yl)oxy]-4-(4-{[2-(4-chlorophenyl)-4,4-dimethylcyclohex-1-en-1-yl]methyl}piperazin-1-yl)-N-[(4-{[(4-fluorotetrahydro-2H-pyran-4-yl)methyl]amino}-3-nitrophenyl)sulfonyl]benzamide] cannot be ordered by Ki: less than 0.01 nM for the first, less than 0.01 nM for the second.

`CC1(C)CCC(CN2CCN(c3ccc(C(=O)NS(=O)(=O)c4ccc(NCC5CN(C6COC6)CCO5)c([N+](=O)[O-])c4)c(Oc4cnc(N)c(Cl)c4)c3)CC2)=C(c2ccc(Cl)cc2)C1` (centres unmarked) [Example 421, 2-[(6-amino-5-chloropyridin-3-yl)oxy]-4-(4-{[2-(4-chlorophenyl)-4,4-dimethylcyclohex-1-en-1-yl]methyl}piperazin-1-yl)-N-{[3-nitro-4-({[4-(oxetan-3-yl)morpholin-2-yl]methyl}amino)phenyl]sulfonyl}benzamide] and `CC1(C)CCC(CN2CCN(c3ccc(C(=O)NS(=O)(=O)c4ccc(NC[C@H]5CN(C6COC6)CCO5)c([N+](=O)[O-])c4)c(Oc4cnc(N)c(Cl)c4)c3)CC2)=C(c2ccc(Cl)cc2)C1` [Example 448, 2-[(6-amino-5-chloropyridin-3-yl)oxy]-4-(4-{[2-(4-chlorophenyl)-4,4-dimethylcyclohex-1-en-1-yl]methyl}piperazin-1-yl)-N-{[3-nitro-4-({[(2S)-4-(oxetan-3-yl)morpholin-2-yl]methyl}amino)phenyl]sulfonyl}benzamide] cannot be ordered by Ki: less than 0.01 nM for the first, less than 0.01 nM for the second.

`CC1(C)CCC(CN2CCN(c3ccc(C(=O)NS(=O)(=O)c4ccc(NC[C@H]5CC[C@H](N6CCOCC6)CC5)c([N+](=O)[O-])c4)c(Oc4cnc(N)c(Cl)c4)c3)CC2)=C(c2ccc(Cl)cc2)C1` [Example 451, 2-[(6-amino-5-chloropyridin-3-yl)oxy]-4-(4-{[2-(4-chlorophenyl)-4,4-dimethylcyclohex-1-en-1-yl]methyl}piperazin-1-yl)-N-{[4-({[trans-4-(morpholin-4-yl)cyclohexyl]methyl}amino)-3-nitrophenyl]sulfonyl}benzamide] and `CC1(C)CCC(CN2CCN(c3ccc(C(=O)NS(=O)(=O)c4ccc(NCC5CCC6(CC5)COC6)c([N+](=O)[O-])c4)c(Oc4cnc(N)c(Cl)c4)c3)CC2)=C(c2ccc(Cl)cc2)C1` [Example 450, 2-[(6-amino-5-chloropyridin-3-yl)oxy]-4-(4-{[2-(4-chlorophenyl)-4,4-dimethylcyclohex-1-en-1-yl]methyl}piperazin-1-yl)-N-({3-nitro-4-[(2-oxaspiro[3.5]non-7-ylmethyl)amino]phenyl}sulfonyl)benzamide] cannot be ordered by Ki: less than 0.01 nM for the first, less than 0.01 nM for the second.

With `CCC1(O)CCC(CNc2ccc(S(=O)(=O)NC(=O)c3ccc(N4CCN(CC5=C(c6ccc(Cl)cc6)CC(C)(C)CC5)CC4)cc3Oc3cnc(N)c(Cl)c3)cc2[N+](=O)[O-])CC1` (stereo not drawn) [Example 447, 2-[(6-amino-5-chloropyridin-3-yl)oxy]-4-(4-{[2-(4-chlorophenyl)-4,4-dimethylcyclohex-1-en-1-yl]methyl}piperazin-1-yl)-N-[(4-{[(cis-4-ethyl-4-hydroxycyclohexyl)methyl]amino}-3-nitrophenyl)sulfonyl]benzamide] the Ki was 0.029 nM.

Reference: US9029404B2, “Apoptosis-inducing agents for the treatment of cancer and immune and autoimmune diseases” (AbbVie Inc., priority 2008, dated 2015)
